Experiments:
Assay type in all cases: in vivo
[1] = system: E. black nightshade (SOLPT; Solanum ptycanthum); assay: Test H postemergence, mixtures of Cpd. No. 20 with atrazine or glyphosate
Excerpt: (§1) This test evaluated the effect of mixtures of Cpd. No. 20 with atrazine or glyphosate on several plant species. Seeds of plant species selected from corn (ZEAMD; Zea mays, cv. ‘Pioneer 1184’), soybean (GLXMA; Glycine max, cv. Pioneer 35T58), giant foxtail (SETFA; Setaria faberi), Surinamgrass (BRADC; Brachiaria decumbens), fall panicum (PANDI; Panicum dichotomiflorum), velvetleaf (ABUTH; Abutilon threophrasti), mare's tail (ERICA; Conyza canadensis), barnyardgrass (ECHCG; Echinochloa crus-galli), large crabgrass (DIGSA; Digitaria sanguinalis), palmer amaranth (AMAPA; Amaranthus palmeri), common waterhemp (AMATU; Amaranthus rudis), E. black nightshade (SOLPT; Solanum ptycanthum), and common ragweed (AMBEL; Ambrosia artemisiifolia) were planted in pots containing Redi-Earth® planting medium (Scotts Company, 14111 Scottslawn Road, Marysville, Ohio 43041) comprising spaghnum peat moss, vermiculite, wetting agent and starter nutrients and treated postemergence using test chemicals formulated in a non-phytotoxic solvent mixture which included a surfactant. Plants ranged in height from 2 to 10 cm and were in the one- to two-leaf stage for the postemergence treatment. Treated plants and untreated controls were maintained in a greenhouse for approximately 14 d, after which time all treated plants were compared to untreated controls and visually evaluated for injury. Plant response ratings, summarized in Tables H1 & H2, are based on a 0 to 100 scale where 0 is no effect and 100 is complete control. A dash (-) response means no test result. Test results are presented as a mean of 4 reps.

[2] = system: common waterhemp (AMATU; Amaranthus rudis); assay: as above
Excerpt: as §1

[3] = system: giant foxtail (SETFA; Setaria faberi); assay: as above
Excerpt: as §1

[4] = system: common ragweed (AMBEL; Ambrosia artemisiifolia); assay: as above
Excerpt: as §1

[5] = system: fall panicum (PANDI; Panicum dichotomiflorum); assay: as above
Excerpt: as §1

[6] = system: corn (ZEAMD; Zea mays, cv. ‘Pioneer 1184’); assay: as above
Excerpt: as §1

[7] = system: velvetleaf (ABUTH; Abutilon threophrasti); assay: as above
Excerpt: as §1

[8] = system: palmer amaranth (AMAPA; Amaranthus palmeri); assay: as above
Excerpt: as §1

[9] = system: Surinamgrass (BRADC; Brachiaria decumbens); assay: as above
Excerpt: as §1

[10] = system: soybean (GLXMA; Glycine max, cv. Pioneer 35T58); assay: as above
Excerpt: as §1

[11] = system: barnyardgrass (ECHCG; Echinochloa crus-galli); assay: as above
Excerpt: as §1

[12] = system: mare's tail (ERICA; Conyza canadensis); assay: as above
Excerpt: as §1

[13] = system: large crabgrass (DIGSA; Digitaria sanguinalis); assay: as above
Excerpt: as §1

[14] = system: rice (ORYSS; Oryza sativa, cv. M202); assay: Test of Tables L1 to L3, postemergence, mixtures of Cpd. No. 20 with benoxacor, isoxadifen-ethyl, or cloquintocet-mexyl; conditions: 31 g a.i./ha
Excerpt: (§2) This test evaluated the effect of mixtures of Cpd. No. 20 with benoxacor, isoxadifen-ethyl, or cloquintocet-mexyl on several plant species. Seeds of plant species selected from corn (ZEAMD; Zea mays, cv. ‘Pioneer 1184’), soybean (GLXMA; Glycine max, cv. Pioneer 35T58), winter wheat (TRZAW; Triticum aetivum, cv. Arezzo), rice (ORYSS; Oryza sativa, cv. M202), and giant foxtail (SETFA; Setaria faberi) were planted in pots containing Redi-Earth® planting medium (Scotts Company, 14111 Scottslawn Road, Marysville, Ohio 43041) comprising spaghnum peat moss, vermiculite, wetting agent and starter nutrients and treated postemergence using test chemicals formulated in a non-phytotoxic solvent mixture which included a surfactant. Plants ranged in height from 7 to 10 cm and were in the one- to two-leaf stage for the postemergence treatment. Treated plants and untreated controls were maintained in a greenhouse for approximately 14 d, after which time all treated plants were compared to untreated controls and visually evaluated for injury. Plant response ratings, summarized in Tables L1 to L3, are based on a 0 to 100 scale where 0 is no effect and 100 is complete control. A dash (-) response means no test result. Test results are presented as a mean of 4 reps.

[15] = system: giant foxtail (SETFA; Setaria faberi); assay: as above; conditions: 31 g a.i./ha
Excerpt: as §2

[16] = system: corn (ZEAMD; Zea mays, cv. ‘Pioneer 1184’); assay: as above; conditions: 31 g a.i./ha
Excerpt: as §2

[17] = system: winter wheat (TRZAW; Triticum aetivum, cv. Arezzo); assay: as above; conditions: 31 g a.i./ha
Excerpt: as §2

[18] = system: soybean (GLXMA; Glycine max, cv. Pioneer 35T58); assay: as above; conditions: 31 g a.i./ha
Excerpt: as §2

## O=C(O)CNCP(=O)(O)O [Glyphosate, glyphosate]
[1]; applied alone at 62 g a.i./ha
  Observed result (plant response rating), SOLPT: 43
[1]; applied alone at 125 g a.i./ha
  Observed result (plant response rating), SOLPT: 51
[2]; applied alone at 62 g a.i./ha
  Observed result (plant response rating), AMATU: 11
[2]; applied alone at 125 g a.i./ha
  Observed result (plant response rating), AMATU: 25
[3]; applied alone at 62 g a.i./ha
  Observed result (plant response rating), SETFA: 74
[3]; applied alone at 125 g a.i./ha
  Observed result (plant response rating), SETFA: 75
[4]; applied alone at 62 g a.i./ha
  Observed result (plant response rating), AMBEL: 68
[4]; applied alone at 125 g a.i./ha
  Observed result (plant response rating), AMBEL: 84
[5]; applied alone at 62 g a.i./ha
  Observed result (plant response rating), PANDI: 28
[5]; applied alone at 125 g a.i./ha
  Observed result (plant response rating), PANDI: 51
[6]; applied alone at 62 g a.i./ha
  Observed result (plant response rating), ZEAMD: 68
[6]; applied alone at 125 g a.i./ha
  Observed result (plant response rating), ZEAMD: 74
[7]; applied alone at 62 g a.i./ha
  Observed result (plant response rating), ABUTH: 0
[7]; applied alone at 125 g a.i./ha
  Observed result (plant response rating), ABUTH: 15
[8]; applied alone at 62 g a.i./ha
  Observed result (plant response rating), AMAPA: 43
[8]; applied alone at 125 g a.i./ha
  Observed result (plant response rating), AMAPA: 23
[9]; applied alone at 62 g a.i./ha
  Observed result (plant response rating), BRADC: 68
[9]; applied alone at 125 g a.i./ha
  Observed result (plant response rating), BRADC: 69
[10]; applied alone at 62 g a.i./ha
  Observed result (plant response rating), GLXMA: 10
[10]; applied alone at 125 g a.i./ha
  Observed result (plant response rating), GLXMA: 25
[11]; applied alone at 62 g a.i./ha
  Observed result (plant response rating), ECHCG: 6
[11]; applied alone at 125 g a.i./ha
  Observed result (plant response rating), ECHCG: 31
[12]; applied alone at 62 g a.i./ha
  Observed result (plant response rating), ERICA: 0
[12]; applied alone at 125 g a.i./ha
  Observed result (plant response rating), ERICA: 0
[13]; applied alone at 62 g a.i./ha
  Observed result (plant response rating), DIGSA: 86
[13]; applied alone at 125 g a.i./ha
  Observed result (plant response rating), DIGSA: 90

## CCNc1nc(Cl)nc(NC(C)C)n1 [Atrazine, atrazine]
[1]; applied alone at 125 g a.i./ha
  Observed result (plant response rating), SOLPT: 28
[1]; applied alone at 250 g a.i./ha
  Observed result (plant response rating), SOLPT: 64
[2]; applied alone at 125 g a.i./ha
  Observed result (plant response rating), AMATU: 30
[2]; applied alone at 250 g a.i./ha
  Observed result (plant response rating), AMATU: 39
[3]; applied alone at 125 g a.i./ha
  Observed result (plant response rating), SETFA: 0
[3]; applied alone at 250 g a.i./ha
  Observed result (plant response rating), SETFA: 0
[4]; applied alone at 125 g a.i./ha
  Observed result (plant response rating), AMBEL: 48
[4]; applied alone at 250 g a.i./ha
  Observed result (plant response rating), AMBEL: 80
[5]; applied alone at 125 g a.i./ha
  Observed result (plant response rating), PANDI: 0
[5]; applied alone at 250 g a.i./ha
  Observed result (plant response rating), PANDI: 0
[6]; applied alone at 125 g a.i./ha
  Observed result (plant response rating), ZEAMD: 0
[6]; applied alone at 250 g a.i./ha
  Observed result (plant response rating), ZEAMD: 0
[7]; applied alone at 125 g a.i./ha
  Observed result (plant response rating), ABUTH: 0
[7]; applied alone at 250 g a.i./ha
  Observed result (plant response rating), ABUTH: 10
[8]; applied alone at 125 g a.i./ha
  Observed result (plant response rating), AMAPA: 76
[8]; applied alone at 250 g a.i./ha
  Observed result (plant response rating), AMAPA: 74
[9]; applied alone at 125 g a.i./ha
  Observed result (plant response rating), BRADC: 0
[9]; applied alone at 250 g a.i./ha
  Observed result (plant response rating), BRADC: 0
[10]; applied alone at 125 g a.i./ha
  Observed result (plant response rating), GLXMA: 15
[10]; applied alone at 250 g a.i./ha
  Observed result (plant response rating), GLXMA: 33
[11]; applied alone at 125 g a.i./ha
  Observed result (plant response rating), ECHCG: 96
[11]; applied alone at 250 g a.i./ha
  Observed result (plant response rating), ECHCG: 100
[12]; applied alone at 125 g a.i./ha
  Observed result (plant response rating), ERICA: 23
[12]; applied alone at 250 g a.i./ha
  Observed result (plant response rating), ERICA: 83
[13]; applied alone at 125 g a.i./ha
  Observed result (plant response rating), DIGSA: 0
[13]; applied alone at 250 g a.i./ha
  Observed result (plant response rating), DIGSA: 0

## CC1COc2ccccc2N1C(=O)C(Cl)Cl (stereo not drawn) [Benoxacor, benoxacor, reference compound]
[14]
  ORYSS plant response rating, 0 to 100 scale: 0
[15]
  SETFA plant response rating, 0 to 100 scale: 0
[16]
  ZEAMD plant response rating, 0 to 100 scale: 0
[17]
  TRZAW plant response rating, 0 to 100 scale: 0
[18]
  GLXMA plant response rating, 0 to 100 scale: 0
